Source: PubChem BioAssay AID226 (DTP/NCI, 2004)
Several values for one entry are separate records, joined by “and”; a condition that tells them apart may be missing. Identical values can stand only once. Inconclusive results and toxic doses are left out.

Test system: B6C3F1 mice, intracerebral ependymoblastoma, median survival T/C
Test: NCI In Vivo Anticancer Drug Screen. Data for tumor model Ependymoblastoma (intracerebral) in B6C3F1 mice
Conditions: endpoint: median survival time, higher = longer survival
Procedure: The antitumor activity of compounds was measured in mice bearing transplantable tumors. Survival or tumor size were measured and the results are expressed as the measurement made in the treated group (T) divided by the measurement made in the vehicle treated control group (C). The tumor model used in this assay is Ependymoblastoma (intracerebral) in B6C3F1 mice

[1] = dose: 5.18 mg/kg/injection, schedule: Q01DX005 (ip), vehicle: Klucel (hydroxypropylcellulose) (HPC)
[2] = dose: 8.64 mg/kg/injection, schedule: Q01DX005 (ip), vehicle: Klucel (hydroxypropylcellulose) (HPC)
[3] = dose: 14.4 mg/kg/injection, schedule: Q01DX005 (ip), vehicle: Klucel (hydroxypropylcellulose) (HPC)
[4] = dose: 24.0 mg/kg/injection, schedule: Q01DX005 (ip), vehicle: Klucel (hydroxypropylcellulose) (HPC)

COC1OC(CNC(=O)N(CCCl)N=O)C(O)C(O)C1O (stereo not drawn)
T/C (dose: 0.5 mg/kg/injection, schedule: Q01DX001 (ip), vehicle: saline): 103 % of control and 119 % of control | T/C (dose: 1.0 mg/kg/injection, schedule: Q01DX001 (ip), vehicle: saline): 109 % of control and 86 % of control | T/C (dose: 2.0 mg/kg/injection, schedule: Q01DX001 (ip), vehicle: saline): 99 % of control and 103 % of control | T/C (dose: 4.0 mg/kg/injection, schedule: Q01DX001 (ip), vehicle: saline): 105 % of control and 109 % of control | T/C (dose: 8.0 mg/kg/injection, schedule: Q01DX001 (ip), vehicle: saline): 103 % of control and 111 % of control | T/C (dose: 16.0 mg/kg/injection, schedule: Q01DX001 (ip), vehicle: saline): 119 % of control

NC(=S)Nc1cccc2ccccc12
T/C (dose: 1.56 mg/kg/injection, schedule: Q01DX005 (ip), vehicle: saline with Tween-80): 92 % of control | T/C (dose: 3.12 mg/kg/injection, schedule: Q01DX005 (ip), vehicle: saline with Tween-80): 100 % of control and 88 % of control | T/C (dose: 6.25 mg/kg/injection, schedule: Q01DX005 (ip), vehicle: saline with Tween-80): 92 % of control and 93 % of control | T/C (dose: 12.5 mg/kg/injection, schedule: Q01DX005 (ip), vehicle: saline with Tween-80): 91 % of control | T/C (dose: 25.0 mg/kg/injection, schedule: Q01DX005 (ip), vehicle: saline with Tween-80): 88 % of control and 89 % of control | T/C (dose: 50.0 mg/kg/injection, schedule: Q01DX005 (ip), vehicle: saline with Tween-80): 91 % of control

O=C1C(NCC(O)CO)=C(N2CC2)C(=O)C(NCC(O)CO)=C1N1CC1 (stereo not drawn)
T/C (dose: 0.5 mg/kg/injection, schedule: Q01DX005 (ip), vehicle: saline): 117 % of control | T/C (dose: 1.0 mg/kg/injection, schedule: Q01DX005 (ip), vehicle: saline): 116 % of control

C=CCSc1ncnc2c1ncn2C1OC(CO)C(O)C1O (stereo not drawn)
T/C (dose: 37.5 mg/kg/injection, schedule: Q01DX005 (ip), vehicle: saline with Tween-80): 98 % of control | T/C (dose: 75.0 mg/kg/injection, schedule: Q01DX005 (ip), vehicle: saline with Tween-80): 114 % of control | T/C (dose: 150.0 mg/kg/injection, schedule: Q01DX005 (ip), vehicle: saline with Tween-80): 120 % of control | T/C (dose: 300.0 mg/kg/injection, schedule: Q01DX005 (ip), vehicle: saline with Tween-80): 106 % of control

CCCCN(C)N=Nc1c(C(N)=O)n[nH]c1C
T/C (dose: 64.0 mg/kg/injection, schedule: Q01DX005 (ip), vehicle: saline with Tween-80): 166 % of control

O=NN(CCF)C(=O)NC1CCCCC1
T/C (dose: 5.1 mg/kg/injection, schedule: Q01DX001 (ip), vehicle: other): 106 % of control | T/C [1]: 184 % of control | T/C [2]: 357 % of control | T/C (dose: 10.2 mg/kg/injection, schedule: Q01DX001 (ip), vehicle: other): 123 % of control | T/C (dose: 13.0 mg/kg/injection, schedule: Q01DX001 (ip), vehicle: Klucel (hydroxypropylcellulose) (HPC)): 153 % of control | T/C [3]: 357 % of control | T/C (dose: 20.4 mg/kg/injection, schedule: Q01DX001 (ip), vehicle: other): 160 % of control | T/C (dose: 21.6 mg/kg/injection, schedule: Q01DX001 (ip), vehicle: Klucel (hydroxypropylcellulose) (HPC)): 216 % of control | T/C [4]: 357 % of control | T/C (dose: 36.0 mg/kg/injection, schedule: Q01DX001 (ip), vehicle: Klucel (hydroxypropylcellulose) (HPC)): 363 % of control | T/C (dose: 40.7 mg/kg/injection, schedule: Q01DX001 (ip), vehicle: other): 220 % of control | T/C (dose: 60.0 mg/kg/injection, schedule: Q01DX001 (ip), vehicle: Klucel (hydroxypropylcellulose) (HPC)): 363 % of control | T/C (dose: 81.4 mg/kg/injection, schedule: Q01DX001 (ip), vehicle: other): 331 % of control | T/C (dose: 100.0 mg/kg/injection, schedule: Q01DX001 (ip), vehicle: Klucel (hydroxypropylcellulose) (HPC)): 333 % of control

CCOC(=O)CC(SP(=S)(OC)OC)C(=O)OCC (stereo not drawn)
T/C (dose: 25.0 mg/kg/injection, schedule: Q01DX005 (ip), vehicle: suspension in saline): 100 % of control | T/C (dose: 50.0 mg/kg/injection, schedule: Q01DX005 (ip), vehicle: suspension in saline): 124 % of control | T/C (dose: 100.0 mg/kg/injection, schedule: Q01DX005 (ip), vehicle: suspension in saline): 101 % of control | T/C (dose: 200.0 mg/kg/injection, schedule: Q01DX005 (ip), vehicle: suspension in saline): 105 % of control

S=P(N1CC1)(N1CC1)N1CC1
T/C (dose: 8.0 mg/kg/injection, schedule: Q01DX005 (ip), vehicle: saline): 169 % of control

O=NN(CCF)C(=O)NC1C(O)CCCC1O (stereo not drawn)
T/C [1]: 189 % of control | T/C [2]: 230 % of control | T/C (dose: 13.0 mg/kg/injection, schedule: Q01DX001 (ip), vehicle: saline): 115 % of control | T/C [3]: 357 % of control | T/C [4]: 111 % of control | T/C (dose: 36.0 mg/kg/injection, schedule: Q01DX001 (ip), vehicle: saline): 159 % of control | T/C (dose: 60.0 mg/kg/injection, schedule: Q01DX001 (ip), vehicle: saline): 247 % of control | T/C (dose: 100.0 mg/kg/injection, schedule: Q01DX001 (ip), vehicle: saline): 157 % of control

CC(=O)NNC(=O)c1ccccn1
T/C (dose: 100.0 mg/kg/injection, schedule: Q01DX005 (ip), vehicle: Klucel (hydroxypropylcellulose) (HPC)): 101 % of control and 110 % of control | T/C (dose: 200.0 mg/kg/injection, schedule: Q01DX005 (ip), vehicle: Klucel (hydroxypropylcellulose) (HPC)): 92 % of control and 90 % of control | T/C (dose: 400.0 mg/kg/injection, schedule: Q01DX005 (ip), vehicle: Klucel (hydroxypropylcellulose) (HPC)): 95 % of control and 103 % of control

O=C1c2ccccc2C(=O)c2c(NCCNCCO)ccc(NCCNCCO)c21
T/C (dose: 1.0 mg/kg/injection, schedule: Q04DX003 (ip), vehicle: Klucel (hydroxypropylcellulose) (HPC)): 107 % of control | T/C (dose: 1.0 mg/kg/injection, schedule: Q04DX003 (ip), vehicle: water): 102 % of control | T/C (dose: 2.0 mg/kg/injection, schedule: Q01DX005 (ip), vehicle: saline with Tween-80): 102 % of control [middle of 4 runs] | T/C (dose: 2.0 mg/kg/injection, schedule: Q04DX003 (ip), vehicle: Klucel (hydroxypropylcellulose) (HPC)): 97 % of control | T/C (dose: 2.0 mg/kg/injection, schedule: Q04DX003 (ip), vehicle: water): 101 % of control | T/C (dose: 4.0 mg/kg/injection, schedule: Q01DX005 (ip), vehicle: saline with Tween-80): 101 % of control [middle of 4 runs] | T/C (dose: 4.0 mg/kg/injection, schedule: Q04DX003 (ip), vehicle: Klucel (hydroxypropylcellulose) (HPC)): 101 % of control | T/C (dose: 4.0 mg/kg/injection, schedule: Q04DX003 (ip), vehicle: water): 92 % of control | T/C (dose: 8.0 mg/kg/injection, schedule: Q01DX005 (ip), vehicle: saline with Tween-80): 109 % of control [middle of 4 runs] | T/C (dose: 8.0 mg/kg/injection, schedule: Q04DX003 (ip), vehicle: Klucel (hydroxypropylcellulose) (HPC)): 110 % of control | T/C (dose: 8.0 mg/kg/injection, schedule: Q04DX003 (ip), vehicle: water): 102 % of control | T/C (dose: 16.0 mg/kg/injection, schedule: Q01DX005 (ip), vehicle: saline with Tween-80): 113 % of control [middle of 4 runs] | T/C (dose: 16.0 mg/kg/injection, schedule: Q04DX003 (ip), vehicle: Klucel (hydroxypropylcellulose) (HPC)): 108 % of control | T/C (dose: 16.0 mg/kg/injection, schedule: Q04DX003 (ip), vehicle: water): 92 % of control | T/C (dose: 32.0 mg/kg/injection, schedule: Q01DX005 (ip), vehicle: saline with Tween-80): 94 % of control and 110 % of control and 116 % of control | T/C (dose: 32.0 mg/kg/injection, schedule: Q04DX003 (ip), vehicle: Klucel (hydroxypropylcellulose) (HPC)): 108 % of control | T/C (dose: 32.0 mg/kg/injection, schedule: Q04DX003 (ip), vehicle: water): 94 % of control | T/C (dose: 64.0 mg/kg/injection, schedule: Q04DX003 (ip), vehicle: Klucel (hydroxypropylcellulose) (HPC)): 97 % of control | T/C (dose: 128.0 mg/kg/injection, schedule: Q04DX003 (ip), vehicle: Klucel (hydroxypropylcellulose) (HPC)): 92 % of control
